The source of these data is patent US6635615B1, “Stable salts of S-adenosyl-l-methionine” (priority 1999, dated 2003).

For series [1] the following is noted: oral; short term trial; cited from earlier work.
For series [2] the following is noted: oral; patients with and without liver disease; cited from earlier work.
For series [3] the following is noted: preliminary study; cited from earlier work.
For series [4] the following is noted: oral; patients with intrahepatic cholestasis; cited from earlier work.
The conditions of series [5]: oral; alcoholic liver cirrhosis; compared with a placebo treated group; cited from earlier work.
Series [6] is described as follows: Stability on storage at room temperature, HPLC analysis of SAM-e concentration. In kind it is physicochemical. The text has this: SAM-e-1, 4-butane-disulphonate and chitosan salt of SAM-e 1, 4-butane-disulphonate were stored at room temperature, in a closed, clear glass vial at constant humidity. HPLC analysis done according to Bottligleri, T. (1990) Isocratic high performance liquid chromatographic analysis of S-adenosylmethionine and S-adenosylhomocysteine in animal tissues: the effect of exposure to nitrous oxide. Biomed Chromatogr, 4(6):239-41.
Stability study-of polycation (chitosan) salt of SAM-e tosylate
SAM-e tosylate and chitosan salt of SAM-e tosylate were stored at room temperature, in a closed, clear glass vial at constant humidity. HPLC analysis done according to Bottligleri, T. (1990) Isocratic high performance liquid chromatographic analysis of S-adenosylmethionine and S-adenosylhomocysteine in animal tissues: the effect of exposure to nitrous oxide. Biomed Chromatogr, 4(6):239-41.

As to `C[S+](CC[C@H](N)C(=O)[O-])C[C@H]1O[C@@H](n2cnc3c(N)ncnc32)[C@H](O)[C@@H]1O` (stereo partly drawn) [SAM-e, S-adenosyl-1-methionine], the “clinical effect in primary fibromyalgia” value in series [1] is reported as “significant improvement”. Further, the liver glutathione levels entry in series [2] was “increases in liver glutathione levels”. Further, the “cognitive effect in patients with Alzheimer's disease” value in series [3] is on record as “cognitive improvement”. Further, the “pruritus and biochemical markers of cholestasis” value in series [4] was “improvements in both the pruritus as well as the biochemical markers of cholestasis”. Further, the “overall mortality and/or progression to liver transplant” value in series [5] is given as 29% vs 12%.
Turning to `C[S+](CC[C@H](N)C(=O)[O-])C[C@H]1O[C@@H](n2cnc3c(N)ncnc32)[C@H](O)[C@@H]1O.O=S(=O)(O)CCCCS(=O)(=O)O` (stereo partly drawn) [SAM-e-1,4-butane-disulphonate], the “deteriorated by (over the period of time)” value in series [6] (Example 10, text, room temperature storage May 11, 2000 to Aug. 22, 2000) was found to be 43%. Further, the “% Change” value in series [6] (Example 10, May 11, 2000 to Aug. 22, 2000, room temperature, closed clear glass vial, constant humidity) is on record as −43.9%. In addition, the “Analysis: May 11, 2000 Concentration 1:500” value in series [6] (Example 10, first analysis May 11, 2000, dilution 1:500, HPLC) is 1417.96 nmol/L. In addition, the “Analysis: Aug. 22, 2000 Concentration 1:500” value in series [6] (Example 10, second analysis Aug. 22, 2000, stored at room temperature, closed clear glass vial, constant humidity, dilution 1:500) is recorded as 794.41 nmol/L.
Take `C[S+](CC[C@H](N)C(=O)O)C[C@H]1O[C@@H](n2cnc3c(N)ncnc32)[C@H](O)[C@@H]1O.Cc1ccc(S(=O)(=O)[O-])cc1` (stereo partly drawn) [SAM-e tosylate]: the “deteriorated by (over the period of time)” value in series [6] (Example 11, text, room temperature storage Dec. 28, 1999 to Apr. 4, 2000) came out at 92.9%. Also, the “Analysis: Dec. 28, 1999 Concentration 0.5 mg/ml 1:125” value in series [6] (Example 11, first analysis Dec. 28, 1999, 0.5 mg/ml, dilution 1:125, HPLC) came to 3492 nmol/L. In addition, in series [6] (Example 11, second analysis Apr. 4, 2000, stored at room temperature, closed clear glass vial, constant humidity, 0.5 mg/ml, 1:125), the “Analysis: Apr. 4, 2000 Concentration 0.5 mg/ml 1:125” value is recorded as 247.9 nmol/L.
